Read-outs that look alike come from different tables or passages of the source.
Key:
Assay in all cases: Pull-down assay with immobilized protein and LSM libraries
S100A4 = target: T1, S100A4 (Homo sapiens, UniProt P26447); assay type: binding; settings: 1:1 binding assumed, read-out: Surface mapping KD (apparent)
T1 construct: made in house; host or cells: Escherichia coli BL21(DE3)
Outline: (§1)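 Buffers were HEPES pH 7.4 with 150 mM NaCl, plus 1 mM TCEP and 1 mM CaCl2 (50 mM HEPES) for S100A4 and S100B, 1 mM TCEP for Gal-1, and no additive for RecQ-WH. Immobilized protein at 64 µM was equilibrated 30 min with the LSM sublibrary, and unbound probes were measured by LC-MS.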

Gal-1 = target: T2, Gal-1 (Homo sapiens, UniProt P09382); assay type: binding; settings: H12 library; 1:1 binding assumed; read-out: Surface mapping KD (apparent)
T2 construct: made in house; host or cells: E. coli BL21(DE3)
T2 sequence (P09382 whole entry): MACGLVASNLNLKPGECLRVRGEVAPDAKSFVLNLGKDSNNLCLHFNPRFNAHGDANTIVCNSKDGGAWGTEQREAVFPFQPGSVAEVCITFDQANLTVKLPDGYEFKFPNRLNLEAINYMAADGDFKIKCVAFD
Outline: as §1

S100B = target: T3, S100B (Homo sapiens, UniProt P04271); assay type: binding; settings: 1:1 binding assumed, read-out: Surface mapping KD (apparent)
T3 construct: made in house; host or cells: Escherichia coli BL21(DE3)
T3 sequence (P04271 1-92): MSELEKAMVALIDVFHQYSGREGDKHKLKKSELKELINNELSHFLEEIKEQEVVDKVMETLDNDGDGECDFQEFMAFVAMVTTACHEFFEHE
Outline: as §1

CaM = target: T4, CaM (Bos taurus, UniProt P62157); assay type: binding, bovine; settings: 1:2 stoichiometry assumed, read-out: Surface mapping KD (apparent)
T4 construct: made in house; host or cells: E. coli BL21 (DE3)
Outline: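 CaM buffer was 20 mM HEPES pH 7.4, 150 mM NaCl, 5 mM CaCl2. LSM sublibrary members ([…]) incubated 30 min, RT, with equimolar His-tagged protein on Co-NTA resin. HPLC-MS measured unbound probes; bound fraction relative to resin-only background gave dissociation constants.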

T1 sequence (P26447 whole entry): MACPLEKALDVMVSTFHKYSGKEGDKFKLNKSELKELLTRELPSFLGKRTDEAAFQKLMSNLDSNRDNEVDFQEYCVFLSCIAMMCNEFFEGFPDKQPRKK

Row | Kd (S100A4; H12 library) [µM] | Kd (Gal-1) [µM] | Kd (S100B; H12 library) [µM] | Kd (CaM; H12 library) [µM] | Kd (S100A4; H14 library) [µM] | Kd (S100B; H14 library) [µM] | Kd (CaM; H14 library) [µM] | SMILES
1 | 125 | 130 | 14 | 21 |  |  |  | NC(=O)[C@H]1CCC[C@@H]1NC(=O)[C@H]1CCC[C@@H]1NC(=O)C[C@H](Cc1ccccc1)NC(=O)[C@H]1CCC[C@@H]1NC(=O)[C@H]1CCC[C@@H]1NC(=O)C[C@H](Cc1ccccc1)NC(=O)[C@H]1CCC[C@@H]1NC(=O)[C@H]1CCC[C@@H]1N [H12 FF]
2 | 126 | 167 | 13 | 15 |  |  |  | CC[C@H](C)[C@@H](CC(=O)N[C@H]1CCC[C@@H]1C(=O)N[C@H]1CCC[C@@H]1C(N)=O)NC(=O)[C@H]1CCC[C@@H]1NC(=O)[C@H]1CCC[C@@H]1NC(=O)C[C@H](Cc1ccccc1)NC(=O)[C@H]1CCC[C@@H]1NC(=O)[C@H]1CCC[C@@H]1N [H12 FI]
3 | 83 | 114 | 14 | 205 |  |  |  | CC(C)C[C@@H](CC(=O)N[C@H]1CCC[C@@H]1C(=O)N[C@H]1CCC[C@@H]1C(N)=O)NC(=O)[C@H]1CCC[C@@H]1NC(=O)[C@H]1CCC[C@@H]1NC(=O)C[C@H](Cc1ccccc1)NC(=O)[C@H]1CCC[C@@H]1NC(=O)[C@H]1CCC[C@@H]1N [H12 FL]
4 | 207 | 170 | 46 | 157 |  |  |  | CC(C)[C@@H](CC(=O)N[C@H]1CCC[C@@H]1C(=O)N[C@H]1CCC[C@@H]1C(N)=O)NC(=O)[C@H]1CCC[C@@H]1NC(=O)[C@H]1CCC[C@@H]1NC(=O)C[C@H](Cc1ccccc1)NC(=O)[C@H]1CCC[C@@H]1NC(=O)[C@H]1CCC[C@@H]1N [H12 FV]
5 | 75 | 136 | 10 | 134 |  |  |  | NC(=O)[C@H]1CCC[C@@H]1NC(=O)[C@H]1CCC[C@@H]1NC(=O)C[C@H](Cc1c[nH]c2ccccc12)NC(=O)[C@H]1CCC[C@@H]1NC(=O)[C@H]1CCC[C@@H]1NC(=O)C[C@H](Cc1ccccc1)NC(=O)[C@H]1CCC[C@@H]1NC(=O)[C@H]1CCC[C@@H]1N [H12 FW]
6 | 32 | 376 | 22 | 28 |  |  |  | CC[C@H](C)[C@@H](CC(=O)N[C@H]1CCC[C@@H]1C(=O)N[C@H]1CCC[C@@H]1C(=O)N[C@H](CC(=O)N[C@H]1CCC[C@@H]1C(=O)N[C@H]1CCC[C@@H]1C(N)=O)Cc1ccccc1)NC(=O)[C@H]1CCC[C@@H]1NC(=O)[C@H]1CCC[C@@H]1N [H12 IF]
7 | 79 | 395 | 25 | 67 |  |  |  | CC[C@H](C)[C@@H](CC(=O)N[C@H]1CCC[C@@H]1C(=O)N[C@H]1CCC[C@@H]1C(N)=O)NC(=O)[C@H]1CCC[C@@H]1NC(=O)[C@H]1CCC[C@@H]1NC(=O)C[C@@H](NC(=O)[C@H]1CCC[C@@H]1NC(=O)[C@H]1CCC[C@@H]1N)[C@@H](C)CC [H12 II]
8 | 79 | 395 | 25 | 67 |  |  |  | CC[C@H](C)[C@@H](CC(=O)N[C@H]1CCC[C@@H]1C(=O)N[C@H]1CCC[C@@H]1C(=O)N[C@H](CC(=O)N[C@H]1CCC[C@@H]1C(=O)N[C@H]1CCC[C@@H]1C(N)=O)CC(C)C)NC(=O)[C@H]1CCC[C@@H]1NC(=O)[C@H]1CCC[C@@H]1N [H12 IL]
9 | 381 | 378 | 74 | 211 |  |  |  | CC[C@H](C)[C@@H](CC(=O)N[C@H]1CCC[C@@H]1C(=O)N[C@H]1CCC[C@@H]1C(=O)N[C@@H](CCSC)CC(=O)N[C@H]1CCC[C@@H]1C(=O)N[C@H]1CCC[C@@H]1C(N)=O)NC(=O)[C@H]1CCC[C@@H]1NC(=O)[C@H]1CCC[C@@H]1N [H12 IM]
10 | 373 | 463 | 57 | 270 |  |  |  | CC[C@H](C)[C@@H](CC(=O)N[C@H]1CCC[C@@H]1C(=O)N[C@H]1CCC[C@@H]1C(=O)N[C@H](CC(=O)N[C@H]1CCC[C@@H]1C(=O)N[C@H]1CCC[C@@H]1C(N)=O)C(C)C)NC(=O)[C@H]1CCC[C@@H]1NC(=O)[C@H]1CCC[C@@H]1N [H12 IV]
11 | 28 | 368 | 11 | 19 |  |  |  | CC[C@H](C)[C@@H](CC(=O)N[C@H]1CCC[C@@H]1C(=O)N[C@H]1CCC[C@@H]1C(=O)N[C@H](CC(=O)N[C@H]1CCC[C@@H]1C(=O)N[C@H]1CCC[C@@H]1C(N)=O)Cc1c[nH]c2ccccc12)NC(=O)[C@H]1CCC[C@@H]1NC(=O)[C@H]1CCC[C@@H]1N [H12 IW]
12 | 100 | 347 | 56 | 28 |  |  |  | CC[C@H](C)[C@@H](CC(=O)N[C@H]1CCC[C@@H]1C(=O)N[C@H]1CCC[C@@H]1C(=O)N[C@H](CC(=O)N[C@H]1CCC[C@@H]1C(=O)N[C@H]1CCC[C@@H]1C(N)=O)Cc1ccc(O)cc1)NC(=O)[C@H]1CCC[C@@H]1NC(=O)[C@H]1CCC[C@@H]1N [H12 IY]
13 | 416 | 292 | 66 | 239 |  |  |  | NCCCC[C@@H](CC(=O)N[C@H]1CCC[C@@H]1C(=O)N[C@H]1CCC[C@@H]1C(=O)N[C@H](CC(=O)N[C@H]1CCC[C@@H]1C(=O)N[C@H]1CCC[C@@H]1C(N)=O)Cc1ccccc1)NC(=O)[C@H]1CCC[C@@H]1NC(=O)[C@H]1CCC[C@@H]1N [H12 KF]
14 | 89 | 316 | 68 | 324 |  |  |  | CC(C)C[C@@H](CC(=O)N[C@H]1CCC[C@@H]1C(=O)N[C@H]1CCC[C@@H]1C(N)=O)NC(=O)[C@H]1CCC[C@@H]1NC(=O)[C@H]1CCC[C@@H]1NC(=O)C[C@H](CCCCN)NC(=O)[C@H]1CCC[C@@H]1NC(=O)[C@H]1CCC[C@@H]1N [H12 KL]
15 | 456 | 161 | 39 | 51 |  |  |  | NCCCC[C@@H](CC(=O)N[C@H]1CCC[C@@H]1C(=O)N[C@H]1CCC[C@@H]1C(=O)N[C@H](CC(=O)N[C@H]1CCC[C@@H]1C(=O)N[C@H]1CCC[C@@H]1C(N)=O)Cc1c[nH]c2ccccc12)NC(=O)[C@H]1CCC[C@@H]1NC(=O)[C@H]1CCC[C@@H]1N [H12 KW]
16 | 32 | 376 | 22 | 28 |  |  |  | CC(C)C[C@@H](CC(=O)N[C@H]1CCC[C@@H]1C(=O)N[C@H]1CCC[C@@H]1C(=O)N[C@H](CC(=O)N[C@H]1CCC[C@@H]1C(=O)N[C@H]1CCC[C@@H]1C(N)=O)Cc1ccccc1)NC(=O)[C@H]1CCC[C@@H]1NC(=O)[C@H]1CCC[C@@H]1N [H12 LF]
17 | 143 | 415 | 37 | 67 |  |  |  | CC[C@H](C)[C@@H](CC(=O)N[C@H]1CCC[C@@H]1C(=O)N[C@H]1CCC[C@@H]1C(N)=O)NC(=O)[C@H]1CCC[C@@H]1NC(=O)[C@H]1CCC[C@@H]1NC(=O)C[C@H](CC(C)C)NC(=O)[C@H]1CCC[C@@H]1NC(=O)[C@H]1CCC[C@@H]1N [H12 LI]
18 | 131 | 415 | 46 | 67 |  |  |  | CC(C)C[C@@H](CC(=O)N[C@H]1CCC[C@@H]1C(=O)N[C@H]1CCC[C@@H]1C(N)=O)NC(=O)[C@H]1CCC[C@@H]1NC(=O)[C@H]1CCC[C@@H]1NC(=O)C[C@H](CC(C)C)NC(=O)[C@H]1CCC[C@@H]1NC(=O)[C@H]1CCC[C@@H]1N [H12 LL]
19 | 183 |  | 38 | 83 |  |  |  | CC(C)[C@@H](CC(=O)N[C@H]1CCC[C@@H]1C(=O)N[C@H]1CCC[C@@H]1C(N)=O)NC(=O)[C@H]1CCC[C@@H]1NC(=O)[C@H]1CCC[C@@H]1NC(=O)C[C@H](Cc1c[nH]c2ccccc12)NC(=O)[C@H]1CCC[C@@H]1NC(=O)[C@H]1CCC[C@@H]1N [H12 WV]
20 | 153 |  | 28 | 30 |  |  |  | NC(=O)[C@H]1CCC[C@@H]1NC(=O)[C@H]1CCC[C@@H]1NC(=O)C[C@H](Cc1ccc(O)cc1)NC(=O)[C@H]1CCC[C@@H]1NC(=O)[C@H]1CCC[C@@H]1NC(=O)C[C@H](Cc1c[nH]c2ccccc12)NC(=O)[C@H]1CCC[C@@H]1NC(=O)[C@H]1CCC[C@@H]1N [H12 WY]
21 | 239 |  | 36 | 30 |  |  |  | NC(=O)[C@H]1CCC[C@@H]1NC(=O)[C@H]1CCC[C@@H]1NC(=O)C[C@H](Cc1ccccc1)NC(=O)[C@H]1CCC[C@@H]1NC(=O)[C@H]1CCC[C@@H]1NC(=O)C[C@H](Cc1ccc(O)cc1)NC(=O)[C@H]1CCC[C@@H]1NC(=O)[C@H]1CCC[C@@H]1N [H12 YF]
22 | 153 |  | 28 | 30 |  |  |  | NC(=O)[C@H]1CCC[C@@H]1NC(=O)[C@H]1CCC[C@@H]1NC(=O)C[C@H](Cc1c[nH]c2ccccc12)NC(=O)[C@H]1CCC[C@@H]1NC(=O)[C@H]1CCC[C@@H]1NC(=O)C[C@H](Cc1ccc(O)cc1)NC(=O)[C@H]1CCC[C@@H]1NC(=O)[C@H]1CCC[C@@H]1N [H12 YW]
23 |  |  |  |  | 85 | 80 | 22 | CC[C@H](C)[C@@H](CC(=O)N[C@H]1CCCC[C@@H]1C(N)=O)NC(=O)[C@H]1CCCC[C@@H]1NC(=O)[C@H]1CCCC[C@@H]1NC(=O)C[C@H](CCCCN)NC(=O)[C@H]1CCCC[C@@H]1N [H14 KI]
24 |  |  |  |  | 85 | 80 | 22 | CC(C)C[C@@H](CC(=O)N[C@H]1CCCC[C@@H]1C(N)=O)NC(=O)[C@H]1CCCC[C@@H]1NC(=O)[C@H]1CCCC[C@@H]1NC(=O)C[C@H](CCCCN)NC(=O)[C@H]1CCCC[C@@H]1N [H14 KL]

— paper PMC8162404, “Proteomimetic surface fragments distinguish targets by function” (Chemical Science, 2020)
